Assay results reported in patent US9708314B2, “Heterocyclic amide compound” (NISSAN CHEMICAL INDUSTRIES, LTD., priority 2013, dated 2017).

What was measured:
Assay type in all cases: in vivo
[1] = tested on: Echinochloa oryzacola Vasing.; test: Test Example 1: herbicidal activity, application before weed generation in submerged conditions; conditions: Application herbicide amount 320 g/ha; Seventeenth Table
Description: (§1) [Test Example 1] Herbicidal Activity Test by Application Before Weed Generation in Submerged Conditions After alluvial soil was placed into 1/10000 are of Wagner pot, water was poured and mixed to form a submerged condition having a water depth of 4 cm. Seeds of Echinochloa oryzacola Vasing., Scirpus juncoides, and Monochoria vaginalis were sowed in a mixed manner in the above pot and thereafter 2.5 leaf stage Oryza sativa seedling was transplanted. On the day of sowing seeds, the emulsion agent containing the compound of the present invention prepared in accordance with Formulation Example 2 was diluted with water so as to be a predetermined herbicide amount and the diluted compound was applied to the surface of the water. The pot was placed in a greenhouse of 25° C. to 30° C. to grow plant. Three weeks after the herbicide application, effects on each plant were investigated in accordance with the following criteria. Criteria 5 Herbicidal ratio of 90% or more (almost completely withered) 4 Herbicidal ratio of 70% or more and less than 90% 3 Herbicidal ratio of 40% or more and less than 70% 2 Herbicidal ratio of 20% or more and less than 40% 1 Herbicidal ratio of 5% or more and less than 20% 0 Herbicidal ratio of 5% or less (almost no effect) A: Echinochloa oryzicola Vasing., B: Scirpus juncoides, C: Monochoria vaginalis, D: Leptochloa chinensis, E: Cyperus difformis, F: Digitaria ciliaris, G: Setaria viridis, H: Echinochloa crus-galli var. crus-galli, I: Avena fatua, J: Alopecurus myosuroides, K: Lolium multiflorum Lam., L: Apera spica-venti., M: Abutilon theophrasti, N: Amaranthus retroflexus, O: Chenopodium album, P: Stellaria media, Q: Galium spurium, R: Veronica persica, a: transplanted Oryza sativa, b: directly sowed Oryza sativa, c: Zea mays, d: Glycine max, e: Triticum aestivum, f: Beta vulgaris ssp. vulgaris, and g: Brassica campestris L. The application herbicide amount (g/ha) means an amount that a concentration is adjusted so that, when an application amount is converted into per hectare (1 ha), the herbicide is applied by the number of grams (g) of the described value.

Scirpus juncoides = test: as above; conditions: Application herbicide amount 320 g/ha; Seventeenth Table
Description: as §1

Monochoria vaginalis = test: as above; conditions: Application herbicide amount 320 g/ha; Seventeenth Table
Description: as §1

[2] = tested on: Echinochloa crus-galli var. crus-galli; test: Test Example 4: herbicidal effect by application to foliage (diluvial soil, plastic box); conditions: Application herbicide amount 320 g/ha
Method in brief: (§2)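 Read-out is a 0–5 visual grade of herbicidal ratio (5: ≥90%, almost withered; 0: ≤5%) taken three weeks after treatment. Compound was applied as a diluted emulsion to stem and leaf parts of 14-day greenhouse-grown plants (25° C. to 30° C.) at rates expressed as g/ha.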

Chenopodium album = test: as above; conditions: Application herbicide amount 320 g/ha
Method in brief: as §2

Apera spica-venti. = test: as above; conditions: Application herbicide amount 320 g/ha
Method in brief: as §2

Avena fatua = test: as above; conditions: Application herbicide amount 320 g/ha
Method in brief: as §2

Setaria viridis = test: as above; conditions: Application herbicide amount 320 g/ha
Method in brief: as §2

Alopecurus myosuroides = test: as above; conditions: Application herbicide amount 320 g/ha
Method in brief: as §2

Lolium multiflorum Lam. = test: as above; conditions: Application herbicide amount 320 g/ha
Method in brief: as §2

Galium spurium = test: as above; conditions: Application herbicide amount 320 g/ha
Method in brief: as §2

Digitaria ciliaris = test: as above; conditions: Application herbicide amount 320 g/ha
Method in brief: as §2

Abutilon theophrasti = test: as above; conditions: Application herbicide amount 320 g/ha
Method in brief: as §2

[3] = tested on: transplanted Oryza sativa; test: Test Example 1: effect on crop, application before weed generation in submerged conditions; conditions: Application herbicide amount 320 g/ha; Seventeenth Table
Description: as §1

COc1cc(OC)cc(-c2nnc3c(C(=O)Nc4nnc(C)o4)ccc(C(F)(F)F)n23)c1 [1-070]
A: Echinochloa oryzicola Vasing. (herbicidal effect grade) [1]: 5 (Herbicidal ratio of 90% or more (almost completely withered)) | B: Scirpus juncoides (herbicidal effect grade) (Scirpus juncoides): 5 (Herbicidal ratio of 90% or more (almost completely withered)) | C: Monochoria vaginalis (herbicidal effect grade) (Monochoria vaginalis): 5 (Herbicidal ratio of 90% or more (almost completely withered)) | H [2]: 5 (Herbicidal ratio of 90% or more (almost completely withered)) | O (Chenopodium album): 5 (Herbicidal ratio of 90% or more (almost completely withered)) | L (Apera spica-venti.): 0 (Herbicidal ratio of 5% or less (almost no effect)) | I (Avena fatua): 1 (Herbicidal ratio of 5% or more and less than 20%) | G (Setaria viridis): 4 (Herbicidal ratio of 70% or more and less than 90%) | J (Alopecurus myosuroides): 0 (Herbicidal ratio of 5% or less (almost no effect)) | K (Lolium multiflorum Lam.): 0 (Herbicidal ratio of 5% or less (almost no effect)) | Q (Galium spurium): 3 (Herbicidal ratio of 40% or more and less than 70%) | F (Digitaria ciliaris): 4 (Herbicidal ratio of 70% or more and less than 90%) | M (Abutilon theophrasti): 4 (Herbicidal ratio of 70% or more and less than 90%) | a: transplanted Oryza sativa (effect on crop grade) [3]: 3 (Herbicidal ratio of 40% or more and less than 70%)

COCC[S+]([O-])c1nnc2c(C(=O)Nc3nnc(C)o3)ccc(C(F)(F)F)n12 (stereo not drawn) [1-073]
A: Echinochloa oryzicola Vasing. (herbicidal effect grade) [1]: 4 (Herbicidal ratio of 70% or more and less than 90%) | B: Scirpus juncoides (herbicidal effect grade) (Scirpus juncoides): 3 (Herbicidal ratio of 40% or more and less than 70%) | C: Monochoria vaginalis (herbicidal effect grade) (Monochoria vaginalis): 2 (Herbicidal ratio of 20% or more and less than 40%) | H [2]: 5 (Herbicidal ratio of 90% or more (almost completely withered)) | O (Chenopodium album): 5 (Herbicidal ratio of 90% or more (almost completely withered)) | L (Apera spica-venti.): 3 (Herbicidal ratio of 40% or more and less than 70%) | I (Avena fatua): 3 (Herbicidal ratio of 40% or more and less than 70%) | G (Setaria viridis): 5 (Herbicidal ratio of 90% or more (almost completely withered)) | J (Alopecurus myosuroides): 2 (Herbicidal ratio of 20% or more and less than 40%) | K (Lolium multiflorum Lam.): 3 (Herbicidal ratio of 40% or more and less than 70%) | Q (Galium spurium): 2 (Herbicidal ratio of 20% or more and less than 40%) | F (Digitaria ciliaris): 5 (Herbicidal ratio of 90% or more (almost completely withered)) | M (Abutilon theophrasti): 5 (Herbicidal ratio of 90% or more (almost completely withered)) | a: transplanted Oryza sativa (effect on crop grade) [3]: 3 (Herbicidal ratio of 40% or more and less than 70%)

Cc1nnc(NC(=O)c2ccc(C(F)(F)F)n3c(C(C)S(C)(=O)=O)nnc23)o1 (stereo not drawn) [1-080]
A: Echinochloa oryzicola Vasing. (herbicidal effect grade) [1]: 5 (Herbicidal ratio of 90% or more (almost completely withered)) | B: Scirpus juncoides (herbicidal effect grade) (Scirpus juncoides): 4 (Herbicidal ratio of 70% or more and less than 90%) | C: Monochoria vaginalis (herbicidal effect grade) (Monochoria vaginalis): 4 (Herbicidal ratio of 70% or more and less than 90%) | H [2]: 5 (Herbicidal ratio of 90% or more (almost completely withered)) | O (Chenopodium album): 5 (Herbicidal ratio of 90% or more (almost completely withered)) | L (Apera spica-venti.): 5 (Herbicidal ratio of 90% or more (almost completely withered)) | I (Avena fatua): 4 (Herbicidal ratio of 70% or more and less than 90%) | G (Setaria viridis): 5 (Herbicidal ratio of 90% or more (almost completely withered)) | J (Alopecurus myosuroides): 5 (Herbicidal ratio of 90% or more (almost completely withered)) | K (Lolium multiflorum Lam.): 4 (Herbicidal ratio of 70% or more and less than 90%) | Q (Galium spurium): 5 (Herbicidal ratio of 90% or more (almost completely withered)) | F (Digitaria ciliaris): 5 (Herbicidal ratio of 90% or more (almost completely withered)) | M (Abutilon theophrasti): 5 (Herbicidal ratio of 90% or more (almost completely withered)) | a: transplanted Oryza sativa (effect on crop grade) [3]: 4 (Herbicidal ratio of 70% or more and less than 90%)
